# Measurements taken from patent publication US6924366B2, “Recombinant hexose oxidase, a method of producing same and use of such enzyme” (Bioteknologisk Institut, priority 1995, dated 2005).
# Key:
# [1] = biological target: T1, recombinant hexose oxidase from Pichia pastoris (Chondrus crispus, UniProt P93762); assay: Substrate specificity of recombinant hexose oxidase (o-dianisidine/peroxidase assay); format: biochemical; details: sugar at a final concentration of 0.1 M; recombinant hexose oxidase expressed in Pichia pastoris
# T1 construct: the entire hexose oxidase gene was amplified and isolated from at least three independent PCR amplifications; made in house; host or cells: Pichia pastoris KM71 with plasmid pUPO153 (pPIC3 vector), intracellular
# T1 sequence (P93762 4-337 limits assumed): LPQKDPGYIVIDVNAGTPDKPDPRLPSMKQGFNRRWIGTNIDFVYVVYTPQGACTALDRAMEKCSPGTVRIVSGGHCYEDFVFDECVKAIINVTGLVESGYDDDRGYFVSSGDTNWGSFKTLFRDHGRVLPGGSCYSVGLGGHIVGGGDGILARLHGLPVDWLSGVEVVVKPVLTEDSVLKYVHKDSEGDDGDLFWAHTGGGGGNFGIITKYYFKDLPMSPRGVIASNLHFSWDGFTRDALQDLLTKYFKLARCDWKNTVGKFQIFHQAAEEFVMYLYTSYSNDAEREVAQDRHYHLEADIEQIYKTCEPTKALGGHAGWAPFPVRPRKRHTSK
# T1 sequence (P93762 338-546 limits assumed): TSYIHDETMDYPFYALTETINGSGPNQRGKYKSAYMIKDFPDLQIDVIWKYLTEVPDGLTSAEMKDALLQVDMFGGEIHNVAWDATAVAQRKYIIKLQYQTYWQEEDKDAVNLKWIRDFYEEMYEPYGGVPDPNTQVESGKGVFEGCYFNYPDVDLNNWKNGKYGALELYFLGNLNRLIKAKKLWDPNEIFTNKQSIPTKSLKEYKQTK
# Procedure: (§1) The procedure used was essentially as described by Sullivan and Ikawa, 1973. This assay is based on the principle that the hydrogen peroxide formed in the oxidation of the sugar in the presence of peroxidase reacts with the chromogenic substance, o-dianisidine to form a dye with absorbance at 402 nm.
# (§2) The assay mixture consisted of 1-40 μl of enzyme sample and 850 μl of an assay solution containing 370 μl of 0.1 M sodium phosphate buffer, pH 7.0; 462 μl of 0.1 M D-glucose in 0.1 M sodium phosphate buffer, pH 7.0; 9 μl of horse radish peroxidase, 0.1 mg/ml in water (Sigma Chemicals, cat. no. P 6782 or Boehringer Mannheim, cat. no. 814 393); and 9 μl of o-dianisidine.2HCl, 3.0 mg/ml in water (3,3′-dimethoxybenzidine, Sigma Chemicals). After incubation at room temperature for 15 or 30 minutes the assay was stopped by addition of one drop of 37% HCl (Merck, p.a.). Samples of 100 μl were transferred from the assay tubes to the wells of a microtiter plate (NUNC, Denmark) and the absorbance at 410 nm was read on a Titertek Multiskan II PLUS plate reader (Labsystems/Flow Laboratories, Finland). To ensure that the observed activity was due to hexose oxidase—and not glucose oxidase—the assay was occasionally performed with D-galactose as the substrate instead of D-glucose.
# (§3) The substrate specificity of recombinant hexose oxidase from Pichia pastoris and native hexose oxidase from Chondrus crispus was compared using a number of sugars at a final concentration of 0.1 M in the assay described above.
# [2] = biological target: T2, native hexose oxidase from Chondrus crispus (Chondrus crispus, UniProt P93762); assay: Substrate specificity of native hexose oxidase (o-dianisidine/peroxidase assay); format: biochemical; details: sugar at a final concentration of 0.1 M
# T2 construct: the native form isolated from Chondrus crispus; from tissue; host or cells: Chondrus crispus (red alga) fronds
# T2 sequence (P93762 4-337 limits assumed): T1 sequence (P93762 4-337 limits assumed)
# T2 sequence (P93762 338-546 limits assumed): T1 sequence (P93762 338-546 limits assumed)
# Procedure: as §1, §2, §3
# [3] = biological target: T3, native hexose oxidase from Chondrus crispus (Chondrus crispus, UniProt P93762); details: literature data; cited from earlier work
# T3 sequence (P93762 1-546): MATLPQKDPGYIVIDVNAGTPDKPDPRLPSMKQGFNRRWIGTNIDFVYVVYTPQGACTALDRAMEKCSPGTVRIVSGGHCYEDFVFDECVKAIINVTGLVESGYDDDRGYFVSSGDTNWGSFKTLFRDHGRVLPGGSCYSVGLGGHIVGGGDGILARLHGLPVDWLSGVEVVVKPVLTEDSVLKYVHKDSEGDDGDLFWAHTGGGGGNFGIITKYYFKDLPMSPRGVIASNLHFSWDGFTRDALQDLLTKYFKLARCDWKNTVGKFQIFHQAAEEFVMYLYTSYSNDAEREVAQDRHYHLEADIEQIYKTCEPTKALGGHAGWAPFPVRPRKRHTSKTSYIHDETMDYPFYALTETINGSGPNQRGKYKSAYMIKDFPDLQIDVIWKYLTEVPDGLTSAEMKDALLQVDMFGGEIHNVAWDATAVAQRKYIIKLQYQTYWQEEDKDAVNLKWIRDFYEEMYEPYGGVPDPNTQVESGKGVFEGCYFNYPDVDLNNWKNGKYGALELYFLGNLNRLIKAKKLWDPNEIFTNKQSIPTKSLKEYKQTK
# [4] = biological target: T1, recombinant hexose oxidase from Pichia pastoris; assay: Inhibition of recombinant hexose oxidase by sodium diethyldithiocarbamate; format: biochemical; details: read-out: Inhibition (%), Recombinant enzyme
# Procedure: as §1
# as §2, with “D-glucose. […]” for “D-glucose.”
# [5] = biological target: T2, native hexose oxidase from Chondrus crispus; assay: Inhibition of native hexose oxidase by sodium diethyldithiocarbamate; format: biochemical; details: read-out: Inhibition (%), Native enzyme
# Procedure: as §1
# as §2, with “D-glucose. […]” for “D-glucose.”
# [6] = biological target: T4, hexose oxidase from Chondrus crispus (Chondrus crispus, UniProt P93762); details: reported by Sullivan and Ikawa (1973); cited from earlier work
# T4 sequence (P93762 1-546): T3 sequence (P93762 1-546)
SMILES,"Relative rate, recombinant enzyme [1]","Relative rate, native enzyme, this work [2]","Relative rate, native enzyme, Sullivan and Ikawa, 1973 [3]",inhibition at 10 µM ([4]; concentration of inhibitor 0.01 mM),inhibition at 100 µM ([4]; concentration of inhibitor 0.1 mM),inhibition at 10 µM [5],inhibition at 100 µM [5],Inhibition of hexose oxidase (in words) [6]
OC[C@H]1O[C@@H](O[C@H]2[C@H](O)[C@@H](O)C(O)O[C@@H]2CO)[C@H](O)[C@@H](O)[C@H]1O (some centres unmarked) [Lactose],38,25,22,,,,,
O=C[C@H](O)[C@@H](O)[C@H](O)[C@H](O)CO [D-Glucose],100,100,100,,,,,
O=C[C@H](O)[C@@H](O)[C@H](O[C@@H]1O[C@H](CO)[C@@H](O)[C@H](O)[C@H]1O)[C@H](O)CO [Cellobiose],51,33,32,,,,,
O=C[C@H](O)[C@@H](O)[C@@H](O)[C@H](O)CO [D-Galactose],75,75,82,,,,,
CCN(CC)C(=S)[S-].[Na+] [sodium diethyldithiocarbamate],,,,39%,96%,41%,95%,strongly inhibited
OC[C@H]1O[C@H](O[C@H]2[C@H](O)[C@@H](O)[C@H](O)O[C@@H]2CO)[C@H](O)[C@@H](O)[C@@H]1O [Maltose],57,37,40,,,,,
